Source: patent publication US20100267778A1, “Diphenyl ether compound, process for producing the same, and use” (priority 2003, published 2010)

Assays:
[1] = system: Male mice (C57BL/6NCrj) loaded with a high-cholesterol feed; test: Lowering action for cholesterol in blood and lipid in blood, mice loaded with high-cholesterol feed; type: in vivo; details: relative value, medium group = 100%
Protocol: Lowering action for cholesterol in blood and lipid in blood:
Male mice of seven weeks age (C57BL/6NCrj) was loaded with a high-cholesterol feed (CRF-1 Solid Feed in which 5.5% of peanut oil, 1.5% of cholesterol and 0.5% of cholic acid were mixed; Oriental Bio Service) for six days, then body weight of the […] was measured under fasting and the following various parameter concentrations were measured. Measured items were LDL, HDL, TG value, NEFA and TC value. […] From the next day, a compound suspended in a medium (a 0.5% methyl cellulose solution) was compulsorily administered per os once daily for continuous six days and, at the same time, loading with the high cholesterol feed was continued as well. On the next day of the final administration (i.e., on the seventh day from the start of the administration), lipid levels in blood (TG, HDL, LDL, NEFA and TC values) were measured.
When the data were expressed as relative values where the value for the group to which a medium was administered was defined as 100%, a raising action for HDL and a lowering action for LDL of the compound produced in Example 9 (47) were as shown in Table 2.

human PPAR δ = biological target: T1, human PPAR δ (Homo sapiens, UniProt Q03181); test: Luciferase assay using human PPAR δ (Gal4-PPAR δ ligand binding domain chimera, CV-1 cells); type: cell-based; details: relative value, carbacyclin at 30 μM defined as 1
T1 construct: expressed in transfected cells; host or cells: CV-1 cells
T1 sequence (Q03181 139-441): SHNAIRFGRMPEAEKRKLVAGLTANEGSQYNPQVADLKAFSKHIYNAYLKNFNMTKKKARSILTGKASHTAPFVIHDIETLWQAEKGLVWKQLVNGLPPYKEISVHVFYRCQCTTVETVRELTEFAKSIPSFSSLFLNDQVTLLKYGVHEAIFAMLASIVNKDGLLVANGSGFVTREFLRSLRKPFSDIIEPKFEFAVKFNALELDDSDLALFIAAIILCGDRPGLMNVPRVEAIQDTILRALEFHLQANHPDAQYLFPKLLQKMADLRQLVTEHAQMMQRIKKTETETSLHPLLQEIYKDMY

[2] = dose 3 mg/kg per os once daily for six days
[3] = dose 10 mg/kg per os once daily for six days
[4] = dose 30 mg/kg per os once daily for six days

Cc1cc(Oc2ccc(C)cc2OCC#Cc2ccc(C(F)(F)F)cc2)cc(C(=O)O)c1 [Example 9 (47), 3-methyl-5-[4-methyl-2-({3-[4-(trifluoromethyl)phenyl]-2-propynyl}oxy)phenoxy]benzoic acid]
HDL-raising action [1, 2]: 112.0% | LDL-lowering action [1, 2]: 89.7% | HDL-raising action [1, 3]: 110.2% | LDL-lowering action [1, 3]: 85.3% | HDL-raising action [1, 4]: 130.7% | LDL-lowering action [1, 4]: 84.4% | Transcription activation degree (human PPAR δ; final concentration 0.1 μM): 0.73 Fold Increase | Transcription activation degree (human PPAR δ; final concentration 0.3 μM): 1.09 Fold Increase | Transcription activation degree (human PPAR δ; final concentration 1.0 μM): 1.02 Fold Increase
